# Patent publication EP0556720B1, “5-Aminoflavone derivatives” (KYOWA HAKKO KOGYO CO., LTD., priority 1992, dated 1993)
# Experiments:
# [1] = system: estrogen dependent human mammary cancer MCF-7; assay: Antitumor effects against estrogen dependent human mammary cancer MCF-7 transplanted subcutaneously in nude mice; assay type: in vivo, female BALB/C-nu/nu mice; settings: orally, five days per week for four weeks, ratio of V/V0 of treated group to control group
# Protocol: Antitumor effects against estrogen dependent human mammary cancer MCF-7
# Tumor strips (2mm x 2 mm x 2mm) of human hormone dependent mammary cancer MCF-7 were transplanted subcutaneously in the ventral part of female BALB/C-nu/nu mice (Nihon Crea), 7-9 weeks age. For promoting the growth of tumor, 12.5 µg of estradiol was intramuscularlly administered three times in the femoral region on the date of transplantation and 7 and 14 days after transplantation. 7 Days after transplantation, mice the tumor volume of which increased to 10-100 mm^3 were selected, and test compounds were orally administered repeatedly for five days per a week, for four weeks, at five animals per group. Length and breadth of the tumor were determined, and the tumor volumes were calculated by means of ellipsoid approximation according to the following equation: (Tumor volume […]= {Length (mm) x [Breadth (mm)])^2 }/2 [formula]
# The tumor volume (V0) at initial administration was determined. The tumor volume (V) was determined after initiation to calculate V/V0 from which the ratio (T/C), that is, the ratio of V/V0 value of treated group relative to that of control group was obtained.
# [2] = system: HeLaS3 cells; assay: Human uterine cervix carcinoma (HeLaS3) growth inhibition test, neutral red staining; assay type: cell-based; settings: HeLa S3, 72 hours culture with sample, absorbance at 550 nm
# Protocol: Human uterine cervix carcinoma (HeLaS3) growth inhibition test;
# Each 0.1 ml of HeLaS3 cells which had been prepared to 3 x 10^4/ml using a medium (referred to as Medium A hereinafter) consisted of MEM medium, 2 mM glutamine and 10% bovine fetal serum was distributed in each well of 96 well-microtiter plate. The plate was cultured at 37 °C for 20 hours in a CO2 gas incubator, each 0.05 ml of samples (test compounds) which had been appropriately diluted with Medium A was added thereto and the mixture was cultured at 37 °C for 72 hours in a CO2 gas incubator. Supernatant was removed, each 0.1 ml of Medium A containing 0.02% neutral red was added to the residue, the mixture was cultured at 37 °C for 1 hour in a CO2 gas incubator and the cells were stained. Supernatant was removed and the residue was washed once with saline. Then, the pigment was extracted with 0.001N hydrochloric acid/30% ethanol and the absorbance at 550 nm was measured with a microplatereader.
# [3] = system: Bacillus subtilis #10107; assay: Antibacterial activity, minimum inhibition concentration by agar dilution method; assay type: cell-based; settings: agar dilution method at pH 7.0
# Protocol: Antibacterial activity of the compound (I) against Bacillus subtilis #10107 [Minimum Inhibition Concentration (MIC; µg/ml)] is shown in Table 2. Minimum Inhibition Concentration was determined by agar dilution method at pH 7.0.
# [4] = system: MCF-7 cells; assay: Human mammary cancer (MCF-7) growth inhibition test, neutral red staining; assay type: cell-based; settings: MCF7, medium with 10^-8M estradiol, 72 hours culture with sample
# Protocol: Human mammary cancer (MCF-7) growth inhibition test;
# Each 0.1 ml of MCF-7 cells which had been prepared to 5 x 10^4/ml using a medium (referred to as Medium B hereinafter) prepared by adding 10% bovine fetal serum, 10^-8M estradiol (manufactured by Sigma), 100 units/ml penicillin and 100 µg/ml streptomycin to medium RPMI1640 was distributed in each well of 96 well-microtiter plate. The plate was cultured at 37 °C for 20 hours in a CO2 gas incubator, each 0.05 ml of samples (test compounds) which had been appropriately diluted with Medium B was added thereto and the mixture was cultured at 37 °C for 72 hours in a CO2 gas incubator. Supernatant was removed, each 0.1 ml of Medium B containing 0.02% neutral red was added to the residue, the mixture was cultured at 37 °C for 1 hour in a CO2 gas incubator and the cells were stained. IC50 was calculated according to the same manner as that in Test 2.
SMILES,IC50 [2] [µM],MIC [3] [µg/mL],IC50 [4] [µM],"T/C ([1]; Dose 6.3 mg/kg, Date 22)","T/C ([1]; Dose 25 mg/kg, Date 29)"
"Nc1ccc(-c2cc(=O)c3c(N)c(F)cc(F)c3o2)cc1 [Compound 12, 5-Amino-2-(4-aminophenyl)-6,8-difluoro-4H-1-benzopyran-4-one]",10,,,0.45,
"NCCCNc1ccc(-c2cc(=O)c3c(N)c(F)ccc3o2)cc1 [Compound 16, 5-Amino-2-[4-[(3-aminopropyl)amino]phenyl]-6-fluoro-4H-1-benzopyran-4-one]",5.8,5.2,,,

# More lines, in order of falling IC50 [2], values ahead:
IC50 [2] [µM],MIC [3] [µg/mL],IC50 [4] [µM],SMILES,"T/C ([1]; Dose 6.3 mg/kg, Date 22)","T/C ([1]; Dose 25 mg/kg, Date 29)"
26,,,"Nc1ccc(-c2cc(=O)c3c(N)c(F)cc(F)c3o2)cc1F [Compound 26, 5-Amino-2-(4-amino-3-fluorophenyl)-6,8-difluoro-4H-1-benzopyran-4-one]",,0.45
12,,9.2,"CCCCCCNc1c(F)cc(F)c2oc(-c3ccc(NCC(=O)OCC)c(F)c3)cc(=O)c12 [Compound 74, 6,8-Difluoro-2-(4-ethoxycarbonylmethylamino-3-fluorophenyl)-5-hexylamino-4H-1-benzopyran-4-one]",,
3.4,2.6,,"NCCCNc1ccc(-c2cc(=O)c3c(N)c(F)cc(F)c3o2)cc1 [Compound 24, 5-Amino-2-[4-[(3-aminopropyl)amino]phenyl]-6,8-difluoro-4H-1-benzopyran-4-one]",,
